# From US8802711B2, “TRPV1 antagonists” (AbbVie Inc., priority 2011, dated 2014)
# Test system: Sprague-Dawley rats
# Test: Chronic constriction injury model of neuropathic pain
# Assay type: in vivo, rat
# Conditions: 100 μmol/kg p.o., 1 hour after dosing
# Text: Adult male Sprague-Dawley rats (250-300 g body weight, Charles River Laboratories, Portage, Mich.) were used. Animal handling and experimental protocols were approved by the Institutional Animal Care and Use Committee (IACUC) at Abbott Laboratories. For all surgical procedures, animals were maintained under isoflurane anesthesia (4-5% to induce, 1-3% to maintain), and the incision sites were sterilized using a 10% povidone-iodine solution prior to and after surgeries.
# A model of chronic constriction injury-induced (CCI) neuropathic pain was produced in rats by following the method of Bennett and Xie (Pain, 1988, 33:87). Following sterilization and anesthetic procedures, a 1.5 cm incision was made dorsal to the pelvis, and the biceps femoris and gluteous superficialis (right side) were separated. The right common sciatic nerve was exposed/isolated, and loosely ligated by 4 ligatures of chromic gut (5-0) with <1 mm spacing using hemostats and forceps. […]
# Tactile allodynia was measured using calibrated von Frey filaments (Stoelting, Wood Dale, Ill.) as described in Chaplan, S. R., F. W. Bach, J. M. Pogrel, J. M. Chung and T. L. Yaksh, Quantitative assessment of tactile allodynia in the rat paw, J. Neurosci. […]
row,SMILES,% effect [%]
1,"O=C(Nc1cccc2[nH]ncc12)N[C@H]1CC[C@@H](c2ccccc2)C1 [Example 28, 1-(1H-indazol-4-yl)-3-[(1S,3R)-3-phenylcyclopentyl]urea]",54
2,"O=C(Nc1cccc2[nH]ncc12)N[C@H]1CC[C@H](c2ccccc2)C1 [Example 14, 1-(1H-indazol-4-yl)-3-[(1S,3S)-3-phenylcyclopentyl]urea]",53
